Results taken from ChEMBL document CHEMBL5131396, “Structure-activity relationship for the folding intermediate-selective inhibition of DYRK1A” (Eur J Med Chem, 2022).
Activity calls are given as the source filed them. No cut-off for these calls is given here.

Assays:
[1] = target: T1, Dual specificity tyrosine-phosphorylation-regulated kinase 1A (Homo sapiens, UniProt Q13627); assay: Induction of degradation of endogenous FLAG-tagged full-length human recombinant DYRK1A (127 to 485 residues) expressed in Escherichia coli in HEK293 cells assessed as decrease in protein level measured after 4 days by Western blot analysis; conditions: dose <= 8.0 µM, time 4.0 day, DDE = dose-dependent effect
[2] = target: T1, Dual specificity tyrosine-phosphorylation-regulated kinase 1A; assay: Inhibition of FLAG-tagged full-length human recombinant DYRK1A (127 to 485 residues) expressed in Escherichia coli assessed as reduction in phosphorylated tyrosine level by Western blot analysis; conditions: dose <= 32.0 µM, DDE = dose-dependent effect
[3] = target: Serine/threonine-protein kinase D1 (Homo sapiens) (UniProt Q15139); assay: Inhibition of PKD1 in HEK293 cells at 1 to 2 uM measured after 4 days by Western blot analysis; conditions: dose 1-2 µM, time 4.0 day
[4] = target: Serine/threonine-protein kinase D1 (Homo sapiens) (UniProt Q15139); assay: Inhibition of recombinant PKD1 in HEK293 cells at 32 uM using DYRKtide peptide as substrate incubated for 45 mins in presence of ATP by Kinase-Glo Luminescent kinase assay
[5] = target: T1, Dual specificity tyrosine-phosphorylation-regulated kinase 1A; assay: Inhibition of FLAG-tagged full-length human recombinant DYRK1A (127 to 485 residues) expressed in Escherichia coli assessed as reduction in autophosphorylation at Ser97 residue by Western blot analysis
HEK293 = assay: Cytotoxicity against HEK293 cells up to 8 uM; assay type: toxicity, cell-based; conditions: human, hek293, 8 µM
[6] = target: Rho-associated protein kinase 1 (Homo sapiens) (UniProt Q13464); assay: Inhibition of ROCK1 in HEK293 cells at 1 to 2 uM measured after 4 days by Western blot analysis; assay type: cell-based; conditions: dose 1-2 µM, time 4.0 day
[7] = target: T1, Dual specificity tyrosine-phosphorylation-regulated kinase 1A; assay: Inhibition of FLAG-tagged full-length human recombinant DYRK1A (127 to 485 residues) expressed in Escherichia coli assessed as reduction in TAU intermolecular phosphorylation incubated for 30 mins by Western blot analysis

Chain of Serine/threonine-protein kinase D1 (Homo sapiens) (Q15139 whole entry, looked up, the tested form may be a part): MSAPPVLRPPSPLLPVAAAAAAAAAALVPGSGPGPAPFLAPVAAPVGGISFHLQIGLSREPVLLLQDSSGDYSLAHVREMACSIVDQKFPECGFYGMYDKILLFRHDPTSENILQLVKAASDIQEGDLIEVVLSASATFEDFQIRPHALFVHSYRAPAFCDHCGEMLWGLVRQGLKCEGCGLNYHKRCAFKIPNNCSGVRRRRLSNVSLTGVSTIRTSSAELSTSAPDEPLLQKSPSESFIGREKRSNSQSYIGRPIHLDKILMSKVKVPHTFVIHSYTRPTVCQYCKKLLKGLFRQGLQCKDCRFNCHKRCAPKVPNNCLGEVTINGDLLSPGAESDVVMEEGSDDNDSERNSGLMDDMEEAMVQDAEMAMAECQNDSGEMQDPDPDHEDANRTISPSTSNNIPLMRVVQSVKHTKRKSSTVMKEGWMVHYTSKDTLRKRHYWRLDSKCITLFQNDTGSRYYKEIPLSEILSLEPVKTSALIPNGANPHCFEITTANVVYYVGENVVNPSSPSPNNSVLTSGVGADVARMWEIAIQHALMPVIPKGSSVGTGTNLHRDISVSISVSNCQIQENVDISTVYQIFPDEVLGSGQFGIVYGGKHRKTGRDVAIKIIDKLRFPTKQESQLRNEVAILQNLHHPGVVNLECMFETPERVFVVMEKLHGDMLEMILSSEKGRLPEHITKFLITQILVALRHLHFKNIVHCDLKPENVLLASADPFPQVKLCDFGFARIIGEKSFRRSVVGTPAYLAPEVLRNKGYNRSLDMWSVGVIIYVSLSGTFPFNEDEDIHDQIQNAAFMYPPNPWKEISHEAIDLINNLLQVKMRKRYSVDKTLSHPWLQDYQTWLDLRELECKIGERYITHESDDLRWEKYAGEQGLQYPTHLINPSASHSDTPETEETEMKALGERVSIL
Chain of Rho-associated protein kinase 1 (Homo sapiens) (Q13464 2-1354 limits assumed): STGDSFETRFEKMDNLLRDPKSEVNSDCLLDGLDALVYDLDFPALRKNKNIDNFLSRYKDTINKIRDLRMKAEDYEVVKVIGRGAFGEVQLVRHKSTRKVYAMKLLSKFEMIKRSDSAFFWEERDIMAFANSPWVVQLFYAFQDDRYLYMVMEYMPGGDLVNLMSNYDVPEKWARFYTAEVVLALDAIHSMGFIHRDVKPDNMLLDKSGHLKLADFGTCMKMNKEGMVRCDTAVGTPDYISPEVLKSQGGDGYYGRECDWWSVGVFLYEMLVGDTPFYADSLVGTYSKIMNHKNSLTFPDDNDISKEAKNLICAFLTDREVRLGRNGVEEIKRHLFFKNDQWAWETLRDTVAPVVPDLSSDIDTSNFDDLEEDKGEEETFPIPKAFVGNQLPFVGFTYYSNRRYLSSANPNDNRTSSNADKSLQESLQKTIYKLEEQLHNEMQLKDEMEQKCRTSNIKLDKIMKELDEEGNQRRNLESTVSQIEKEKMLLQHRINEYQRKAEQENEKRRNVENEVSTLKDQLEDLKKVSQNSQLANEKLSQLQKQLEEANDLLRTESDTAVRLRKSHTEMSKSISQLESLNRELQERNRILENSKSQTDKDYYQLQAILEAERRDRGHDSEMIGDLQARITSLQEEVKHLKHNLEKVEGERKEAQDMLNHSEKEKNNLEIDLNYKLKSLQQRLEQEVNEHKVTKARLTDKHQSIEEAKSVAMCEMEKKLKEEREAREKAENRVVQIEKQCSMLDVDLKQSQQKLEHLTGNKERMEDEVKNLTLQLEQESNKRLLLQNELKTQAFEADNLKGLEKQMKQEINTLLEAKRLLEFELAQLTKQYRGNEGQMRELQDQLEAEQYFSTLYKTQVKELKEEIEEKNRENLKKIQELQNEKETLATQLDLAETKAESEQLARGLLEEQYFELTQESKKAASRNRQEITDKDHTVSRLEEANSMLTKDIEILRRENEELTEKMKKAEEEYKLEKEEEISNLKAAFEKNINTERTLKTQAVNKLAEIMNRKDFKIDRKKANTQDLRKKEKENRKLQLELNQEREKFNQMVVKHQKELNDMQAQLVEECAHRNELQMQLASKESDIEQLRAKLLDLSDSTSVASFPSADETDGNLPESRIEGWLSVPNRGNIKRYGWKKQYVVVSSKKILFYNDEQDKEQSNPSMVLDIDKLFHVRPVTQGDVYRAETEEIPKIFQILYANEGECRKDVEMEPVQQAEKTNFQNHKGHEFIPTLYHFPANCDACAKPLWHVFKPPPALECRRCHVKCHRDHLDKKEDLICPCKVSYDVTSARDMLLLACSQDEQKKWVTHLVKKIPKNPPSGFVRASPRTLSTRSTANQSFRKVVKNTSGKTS

IC50 [5] [µM] | Structure (SMILES) | inhibition [2] | inhibition [4] | Activity (HEK293) | also measured
0.53 | COc1ccc(/C=C2\SC(=S)NC2=O)cc1C#C[Si](C)(c1ccccc1)c1ccccc1 | Dde | Active | Non-Toxic | Activity [1]: Dde; inhibition [3]: Active; inhibition [6]: Active
> 32 | COc1ccc(/C=C2\SC(=S)NC2=O)cc1/C=C/C1CCCCC1 | – | – | – | –
> 32 | COc1ccc(/C=C2\SC(=S)NC2=O)cc1/C=C/C(C)(C)C | – | – | – | –
– | CCOc1cc(/C=C2\SC(=S)NC2=O)ccc1O | – | – | – | inhibition [7]: Active
> 32 | COc1ccc(/C=C2\SC(=S)NC2=O)cc1/C=C/[Si](C)(C)C | – | – | – | –
– | COc1ccc(/C=C2\SC(=S)NC2=O)cc1C#C[Si](C)(C)C | Dde | Active | Non-Toxic | –
